Biological target: recombinant human HPK1 (Homo sapiens (Human), UniProt Q92918)
Assay: HPK1 kinase assay (ADP-Glo)
Assay type: biochemical
Details: 25 μM ATP, MBP substrate
Protocol: HPK1 kinase activity was measured by Promega's ADP-Glo™ kinase assay. In this assay, 5 ng of recombinant human HPK1 (signalchem) is incubated with 5 μL of compounds (0.5% DMSO), 5 μL of MBP (0.5 μg/μl) and 5 μL of ATP (25 μM) in buffer (40 mM Tris, 7.5; 20 mM MgCl2; 0.1 mg/ml BSA; 5 μM DTT). The assay was started by incubating the reaction mixture in a 96-well plate at 30′ C for 40 minutes. After the incubation, 25 uL ADP-Glo reagent was added and the reaction was incubated at room temperature for 40-min to stop the reaction and degrade residual ATP. The ADP product was then converted to ATP by adding 50 uL per well of detection reagent. Luminescence was detected after 30-min room temperature incubation with the Molecular device I3X plate reader. The IC50 values were calculated from a series of percent inhibition values determined at a range of inhibitor concentration using software routines as implemented in the GraphPad Prism 7 software and SigmaPlot13.0.

Sequence of recombinant human HPK1 (Q92918 whole entry): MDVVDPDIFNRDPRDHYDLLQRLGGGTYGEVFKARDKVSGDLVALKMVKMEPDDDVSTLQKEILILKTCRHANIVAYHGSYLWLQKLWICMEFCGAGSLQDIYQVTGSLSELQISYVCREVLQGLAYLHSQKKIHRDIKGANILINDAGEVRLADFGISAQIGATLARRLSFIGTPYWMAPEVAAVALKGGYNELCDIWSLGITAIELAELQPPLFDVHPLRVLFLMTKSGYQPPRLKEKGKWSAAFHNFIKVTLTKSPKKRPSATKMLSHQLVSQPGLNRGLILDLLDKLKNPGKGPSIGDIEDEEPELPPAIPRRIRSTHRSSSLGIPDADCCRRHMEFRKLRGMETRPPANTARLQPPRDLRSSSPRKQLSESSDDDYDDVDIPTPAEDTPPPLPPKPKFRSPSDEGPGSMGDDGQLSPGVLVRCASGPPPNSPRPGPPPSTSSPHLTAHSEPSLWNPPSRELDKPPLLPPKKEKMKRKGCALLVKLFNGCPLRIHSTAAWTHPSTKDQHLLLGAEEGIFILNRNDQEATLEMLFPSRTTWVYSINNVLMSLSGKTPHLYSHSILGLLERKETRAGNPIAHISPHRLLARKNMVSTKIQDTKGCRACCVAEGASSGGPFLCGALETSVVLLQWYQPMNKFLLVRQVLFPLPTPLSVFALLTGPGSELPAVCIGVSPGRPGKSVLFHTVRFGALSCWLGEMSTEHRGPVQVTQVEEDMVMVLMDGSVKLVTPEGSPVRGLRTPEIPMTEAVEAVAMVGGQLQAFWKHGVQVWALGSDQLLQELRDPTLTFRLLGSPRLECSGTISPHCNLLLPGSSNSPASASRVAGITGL

IC50 | SMILES
101 to 500 nM | C#Cc1ccc2[nH]ncc2c1-c1ccc2nc(NC(=O)[C@@H]3C[C@@H]3F)sc2c1 [Example 39, (1S,2S)-N-(6-(5-ethynyl-1H-indazol-4-yl)benzo[d]thiazol-2-yl)-2-fluorocyclopropane-1-carboxamide]
< 100 nM | Cc1c(F)cc2[nH]ncc2c1-c1ccc2nc(NC(=O)[C@@H]3C[C@@H]3F)sc2c1 [Example 40, (1S,2S)-2-fluoro-N-(6-(6-fluoro-5-methyl-1H-indazol-4-yl)benzo[d]thiazol-2-yl)cyclopropane-1-carboxamide]
101 to 500 nM | O=C(Nc1nc2ccc(-c3c(Cl)c(F)cc4[nH]ncc34)cc2s1)[C@@H]1C[C@@H]1F [Example 41, (1S,2S)-N-(6-(5-chloro-6-fluoro-1H-indazol-4-yl)benzo[d]thiazol-2-yl)-2-fluorocyclopropane-1-carboxamide]
101 to 500 nM | O=C(Nc1nc2ccc(-c3c(Br)c(F)cc4[nH]ncc34)cc2s1)[C@@H]1C[C@@H]1F [Example 42, (1S,2S)-N-(6-(5-bromo-6-fluoro-1H-indazol-4-yl)benzo[d]thiazol-2-yl)-2-fluorocyclopropane-1-carboxamide]
501 to 1000 nM | Cc1c(F)cc2[nH]nc(Cl)c2c1-c1ccc2nc(NC(=O)[C@@H]3C[C@@H]3F)sc2c1 [Example 44, (1S,2S)-N-(6-(3-chloro-6-fluoro-5-methyl-1H-indazol-4-yl)benzo[d]thiazol-2-yl)-2-fluorocyclopropane-1-carboxamide]
> 1000 nM | Cc1c(F)cc2[nH]nc(I)c2c1-c1ccc2nc(NC(=O)[C@@H]3C[C@@H]3F)sc2c1 [Example 45, (1S,2S)-2-fluoro-N-(6-(6-fluoro-3-iodo-5-methyl-1H-indazol-4-yl)benzo[d]thiazol-2-yl)cyclopropane-1-carboxamide]
< 100 nM | CCc1c(F)cc2[nH]ncc2c1-c1ccc2nc(NC(=O)[C@@H]3C[C@@H]3F)sc2c1 [Example 46, (1S,2S)-N-(6-(5-ethyl-6-fluoro-1H-indazol-4-yl)benzo[d]thiazol-2-yl)-2-fluorocyclopropane-1-carboxamide]
< 100 nM | C#Cc1c(F)cc2[nH]ncc2c1-c1ccc2nc(NC(=O)[C@@H]3C[C@@H]3F)sc2c1 [Example 47, (1S,2S)-N-(6-(5-ethynyl-6-fluoro-1H-indazol-4-yl)benzo[d]thiazol-2-yl)-2-fluorocyclopropane-1-carboxamide]
< 100 nM | O=C(Nc1nc2ccc(-c3c(I)c(F)cc4[nH]ncc34)cc2s1)[C@@H]1C[C@@H]1F [Example 48, (1S,2S)-2-fluoro-N-(6-(6-fluoro-5-iodo-1H-indazol-4-yl)benzo[d]thiazol-2-yl)cyclopropane-1-carboxamide]
501 to 1000 nM | Cc1c(F)cc2[nH]nc(Br)c2c1-c1ccc2nc(NC(=O)[C@@H]3C[C@@H]3F)sc2c1 [Example 49, (1S,2S)-N-(6-(3-bromo-6-fluoro-5-methyl-1H-indazol-4-yl)benzo[d]thiazol-2-yl)-2-fluorocyclopropane-1-carboxamide]
< 100 nM | O=C(Nc1nc2ccc(-c3c(C(F)(F)F)c(F)cc4[nH]ncc34)cc2s1)[C@@H]1C[C@@H]1F [Example 50, (1S,2S)-2-fluoro-N-(6-(6-fluoro-5-(trifluoromethyl)-1H-indazol-4-yl)benzo[d]thiazol-2-yl)cyclopropane-1-carboxamide]
< 100 nM | Cc1c(F)c(Cl)c2[nH]ncc2c1-c1ccc2nc(NC(=O)[C@@H]3C[C@@H]3F)sc2c1 [Example 51, (1S,2S)-N-(6-(7-chloro-6-fluoro-5-methyl-1H-indazol-4-yl)benzo[d]thiazol-2-yl)-2-fluorocyclopropane-1-carboxamide]
> 1000 nM | C=Cc1n[nH]c2cc(F)c(C)c(-c3ccc4nc(NC(=O)[C@@H]5C[C@@H]5F)sc4c3)c12 [Example 52, (1S,2S)-2-fluoro-N-(6-(6-fluoro-5-methyl-3-vinyl-1H-indazol-4-yl)benzo[d]thiazol-2-yl)cyclopropane-1-carboxamide]
101 to 500 nM | Cc1c(F)c(Cl)c2[nH]nc(Cl)c2c1-c1ccc2nc(NC(=O)[C@@H]3C[C@@H]3F)sc2c1 [Example 53, (1S,2S)-N-(6-(3,7-dichloro-6-fluoro-5-methyl-1H-indazol-4-yl)benzo[d]thiazol-2-yl)-2-fluorocyclopropane-1-carboxamide]
> 1000 nM | Cc1c(F)c(Cl)c2[nH]nc(Cl)c2c1-c1cc(Cl)c2nc(NC(=O)[C@@H]3C[C@@H]3F)sc2c1 [Example 54, (1S,2S)-N-(4-chloro-6-(3,7-dichloro-6-fluoro-5-methyl-1H-indazol-4-yl)benzo[d]thiazol-2-yl)-2-fluorocyclopropane-1-carboxamide]
101 to 500 nM | Cc1c(F)c(F)c2[nH]nc(F)c2c1-c1ccc2nc(NC(=O)[C@@H]3C[C@@H]3F)sc2c1 [Example 55, (1S,2S)-2-fluoro-N-(6-(3,6,7-trifluoro-5-methyl-1H-indazol-4-yl)benzo[d]thiazol-2-yl)cyclopropane-1-carboxamide]
< 100 nM | Cc1c(F)c(Cl)c(-c2ccc3nc(NC(=O)[C@@H]4C[C@@H]4F)sc3c2)c2cn[nH]c12 [Example 57, (1S,2S)-N-(6-(5-chloro-6-fluoro-7-methyl-1H-indazol-4-yl)benzo[d]thiazol-2-yl)-2-fluorocyclopropane-1-carboxamide]
< 100 nM | CSc1c(F)c(Cl)c(-c2ccc3nc(NC(=O)[C@@H]4C[C@@H]4F)sc3c2)c2cn[nH]c12 [Example 58, (1S,2S)-N-(6-(5-chloro-6-fluoro-7-(methylthio)-1H-indazol-4-yl)benzo[d]thiazol-2-yl)-2-fluorocyclopropane-1-carboxamide]
< 100 nM | Cc1c(F)c(C)c2[nH]ncc2c1-c1ccc2nc(NC(=O)[C@@H]3C[C@@H]3F)sc2c1 [Example 59, (1S,2S)-2-fluoro-N-(6-(6-fluoro-5,7-dimethyl-1H-indazol-4-yl)benzo[d]thiazol-2-yl)cyclopropane-1-carboxamide]
> 1000 nM | CP(C)(=O)c1c(F)c(Cl)c(-c2ccc3nc(NC(=O)[C@@H]4C[C@@H]4F)sc3c2)c2cn[nH]c12 [Example 60, (1S,2S)-N-(6-(5-chloro-7-(dimethylphosphoryl)-6-fluoro-1H-indazol-4-yl)benzo[d]thiazol-2-yl)-2-fluorocyclopropane-1-carboxamide]
< 100 nM | C=Cc1c(F)c(Cl)c(-c2ccc3nc(NC(=O)[C@@H]4C[C@@H]4F)sc3c2)c2cn[nH]c12 [Example 61, (1S,2S)-N-(6-(5-chloro-6-fluoro-7-vinyl-1H-indazol-4-yl)benzo[d]thiazol-2-yl)-2-fluorocyclopropane-1-carboxamide]
101 to 500 nM | C=Cc1c(F)c(C)c(-c2ccc3nc(NC(=O)[C@@H]4C[C@@H]4F)sc3c2)c2cn[nH]c12 [Example 62, (1S,2S)-2-fluoro-N-(6-(6-fluoro-5-methyl-7-vinyl-1H-indazol-4-yl)benzo[d]thiazol-2-yl)cyclopropane-1-carboxamide]
< 100 nM | C[S+]([O-])c1c(F)c(Cl)c(-c2ccc3nc(NC(=O)[C@@H]4C[C@@H]4F)sc3c2)c2cn[nH]c12 (stereo partly drawn) [Example 63, (1S,2S)-N-(6-(5-chloro-6-fluoro-7-(methylsulfinyl)-1H-indazol-4-yl)benzo[d]thiazol-2-yl)-2-fluorocyclopropane-1-carboxamide]
< 100 nM | CSc1c(F)c(C)c(-c2ccc3nc(NC(=O)[C@@H]4C[C@@H]4F)sc3c2)c2cn[nH]c12 [Example 64, (1S,2S)-2-fluoro-N-(6-(6-fluoro-5-methyl-7-(methylthio)-1H-indazol-4-yl)benzo[d]thiazol-2-yl)cyclopropane-1-carboxamide]
< 100 nM | Cc1c(F)cc2[nH]ncc2c1-c1ccc2nc(NC(=O)[C@@H]3C[C@@H]3F)sc2c1CCc1ccncc1 [Example 65, (1S,2S)-2-fluoro-N-(6-(6-fluoro-5-methyl-1H-indazol-4-yl)-7-(2-(pyridin-4-yl)ethyl)benzo[d]thiazol-2-yl)cyclopropane-1-carboxamide]
< 100 nM | Cc1c(F)c([S+](C)[O-])c2[nH]ncc2c1-c1ccc2nc(NC(=O)[C@@H]3C[C@@H]3F)sc2c1 (stereo partly drawn) [Example 66, (1S,2S)-2-fluoro-N-(6-(6-fluoro-5-methyl-7-(methylsulfinyl)-1H-indazol-4-yl)benzo[d]thiazol-2-yl)cyclopropane-1-carboxamide]
< 100 nM | Cc1c(F)c(I)c2[nH]ncc2c1-c1ccc2nc(NC(=O)[C@@H]3C[C@@H]3F)sc2c1 [Example 67, (1S,2S)-2-fluoro-N-(6-(6-fluoro-7-iodo-5-methyl-1H-indazol-4-yl)benzo[d]thiazol-2-yl)cyclopropane-1-carboxamide]
< 100 nM | Nc1c(F)c(Cl)c(-c2ccc3nc(NC(=O)[C@@H]4C[C@@H]4F)sc3c2)c2cn[nH]c12 [Example 68, (1S,2S)-N-(6-(7-amino-5-chloro-6-fluoro-1H-indazol-4-yl)benzo[d]thiazol-2-yl)-2-fluorocyclopropane-1-carboxamide]
< 100 nM | CN(C)c1c(F)c(Cl)c(-c2ccc3nc(NC(=O)[C@@H]4C[C@@H]4F)sc3c2)c2cn[nH]c12 [Example 69, (1S,2S)-N-(6-(5-chloro-7-(dimethylamino)-6-fluoro-1H-indazol-4-yl)benzo[d]thiazol-2-yl)-2-fluorocyclopropane-1-carboxamide]
< 100 nM | NCCSc1c(F)c(Cl)c(-c2ccc3nc(NC(=O)[C@@H]4C[C@@H]4F)sc3c2)c2cn[nH]c12 [Example 70, (1S,2S)-N-(6-(7-((2-aminoethyl)thio)-5-chloro-6-fluoro-1H-indazol-4-yl)benzo[d]thiazol-2-yl)-2-fluorocyclopropane-1-carboxamide]

— US11649255B2, “Indazoles as hematopoietic progenitor kinase 1 (HPK1) inhibitors and methods using same” (1st Biotherapeutics, Inc., priority 2020, dated 2023)
